Experimental data as given in patent US20260327243A1, “SPIRO-HETEROCYCLIC INHIBITORS OF KRAS G12C MUTANT PROTEINS AND USES THEREOF” (AMGEN INC., priority 2023, published 2026).

What was measured:
A549 cells = test: Cell Viability Assay, A549; format: cell-based; settings: A549; human lung carcinoma; 72 h; CellTiter-Glo
Method: (§1) MIA PaCa-2 (human pancreatic carcinoma; ATCC CRL-1420) or A549 (human lung carcinoma; ATCC CCL-185) cells were cultured in RPMI 1640 medium containing 10% fetal bovine serum and 1×penicillin/streptomycin/L-glutamine. Cells were seeded in 384-well plates at a density of 1.67E+04 cells/mL and incubated at 37° C., 5% CO2, overnight. Serially-diluted compound or DMSO was added to the cells, and plates were incubated at 37° C., 5% CO2 for 72 h. Cell viability was measured using a CellTiter-Glo® Luminescent Cell Viability Assay kit (Promega) according to the manufacturer's protocol. The luminescence signal of treated samples was normalized to DMSO control, and data were analyzed using a 4-parameter logistic model to calculate IC50 values.
(§2) The following data (Table 3) categorizes the IC50 of each compound for inhibiting enzymatic activity of KRAS^G12C in the indicated cells.

KRAS^G12C = KRAS^G12C (Homo sapiens, UniProt P01116, C118A/G12C); test: Coupled Nucleotide Exchange Assay; format: biochemical; settings: GDP-bound KRAS (aa 1-169) G12C/C118A; 2 h compound pre-incubation; SOS-mediated exchange, 30 min; cRAF binding (AlphaLISA)
Chain of KRAS^G12C (P01116 1-169 isoform P01116-2 G12C/C118A): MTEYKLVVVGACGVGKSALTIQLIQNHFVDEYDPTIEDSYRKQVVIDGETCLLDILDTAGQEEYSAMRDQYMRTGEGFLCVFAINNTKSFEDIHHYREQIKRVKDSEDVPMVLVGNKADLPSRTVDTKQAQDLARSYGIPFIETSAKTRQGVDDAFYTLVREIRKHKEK
Summary of the method: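 GDP-bound His-tagged KRAS aa 1-169 (G12C/C118A) pre-incubated 2 h with compound in 25 mM HEPES pH 7.4, 10 mM MgCl2, 0.01% Triton X-100 (±0.1% BSA), then SOS (aa 564-1049) plus GTP added for 30 min. GST-cRAF RBD binding read by AlphaLISA; DMSO-normalized, 4-parameter fit gives IC50.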

MIA PaCa-2 cells = test: Cell Viability Assay, MIA PaCa-2; format: cell-based; settings: Homo sapiens, MIA PaCa-2, 72 h, human pancreatic carcinoma, CellTiter-Glo
Method: as §1, §2

SMILES | IC50 (A549 cells) | IC50 (KRAS^G12C) | IC50 (MIA PaCa-2 cells)
C=CC(=O)N1CCN(C2CN(c3cc(N4CCC5(CC4)CC(Br)=NO5)nc(C(F)(F)F)c3C#N)C2)CC1 [Compound 3-017, 4-(3-(4-acryloylpiperazin-1-yl)-azetidin-1-yl)-6-(3-bromo-1-oxa-2.8-diazaspiro[4.5]dec-2-en-8-yl)-2-(trifluoromethyl)nicotinonitrile] | > 5000 nM | 828 nM | 1990 nM
C=CC(=O)N1CCN(C2CN(c3cc(N4CCC5(CC4)OCc4ccccc45)nc(C(F)(F)F)c3C#N)C2)CC1 [Compound 3-028, 4-(3-(4-acryloylpiperazin-1-yl)azetidin-1-yl)-6-(3H-spiro[isobenzofuran-1,4′-piperidin]-1′-yl)-2-(trifluoromethyl)nicotinonitrile] | > 3330 nM | 1790 nM | 1340 nM
C=CC(=O)N1CCN(C2CN(c3cc(N4CCC5(CCCO5)CC4)nc(C(F)(F)F)c3C#N)C2)CC1 [Compound 3-039, 4-(3-(4-acryloylpiperazin-1-yl)azetidin-1-yl)-6-(1-oxa-8-azaspiro[4.5]decan-8-yl)-2-(trifluoromethyl)nicotinonitrile] | > 5000 nM | 1650 nM | 2410 nM
C=CC(=O)N1CCN(C2CN(c3cc(N4CCC5(CC4)OCc4cnccc45)nc(C(F)(F)F)c3C#N)C2)CC1 [Compound 3-043] | > 5000 nM | 1590 nM | 1290 nM
C=CC(=O)N1CCN(C2CN(c3cc(N4CCC5(CC4)OCc4ncsc45)nc(C(F)(F)F)c3C#N)C2)CC1 [Compound 3-046, 4-(3-(4-Acryloylpiperazin-1-yl)azetidin-1-yl)-6-(4H-spiro[furo[3,4-d]thiazole-6,4′-piperidin]-1′-yl)-2-(trifluoromethyl)nicotinonitrile] | > 5000 nM | 253 nM | 1140 nM
C=CC(=O)N1CCN(C2CN(c3cc(N4CCC5(CC4)OCc4cnn(C)c45)nc(C(F)(F)F)c3C#N)C2)CC1 [Compound 3-049, 4-(3-(4-acryloylpiperazin-1-yl)azetidin-1-yl)-6-(1-methyl-1,4-dihydrospiro[furo[3,4-c]pyrazole-6,4′-piperidin]-1′-yl)-2-(trifluoromethyl)nicotinonitrile] | > 5000 nM | 664 nM | 979 nM
C=CC(=O)N1CCN(C2CN(c3cc(N4CCC5(CC4)OCC=C5C)nc(C(F)(F)F)c3C#N)C2)CC1 [Compound 3-051, 4-(3-(4-Acryloylpiperazin-1-yl)azetidin-1-yl)-6-(4-methyl-1-oxa-8-azaspiro[4.5]dec-3-en-8-yl)-2-(trifluoromethyl)nicotinonitrile] | > 5000 nM | 102 nM | 284 nM
C=CC(=O)N1CCN([C@@H]2CN(c3cc(N4CCC5(CC4)OCC=C5C)nc(C(F)(F)F)c3C#N)[C@@H]2C)CC1 [Compound 3-052, 4-((2R,3R)-3-(4-Acryloylpiperazin-1-yl)-2-methylazetidin-1-yl)-6-(4-methyl-1-oxa-8-azaspiro[4.5]dec-3-en-8-yl)-2-(trifluoromethyl)nicotinonitrile] | 4550 nM | 161 nM | 254 nM
C=CC(=O)N1CCN(C2CN(c3cc(N4CCC5(CC4)OC(C)C=C5C)nc(C(F)(F)F)c3C#N)C2)CC1 (stereo not drawn) [Compound 3-053, 4-(3-(4-Acryloylpiperazin-1-yl)azetidin-1-yl)-6-(2,4-dimethyl-1-oxa-8-azaspiro[4.5]dec-3-en-8-yl)-2-(trifluoromethyl)nicotinonitrile] | > 5000 nM | 191 nM | 755 nM
C=CC(=O)N1CCN([C@@H]2CN(c3cc(N4CCC5(CC4)OCC=C5C)nc(C(F)F)c3C)[C@@H]2C)CC1 [Compound 3-057, 1-(4-((2R,3R)-1-(2-(Difluoromethyl)-3-methyl-6-(4-methyl-1-oxa-8-azaspiro[4.5]dec-3-en-8-yl)pyridin-4-yl)-2-methylazetidin-3-yl)piperazin-1-yl) prop-2-en-1-one] | > 5000 nM | 288 nM | 272 nM
C=CC(=O)N1CCN(C2CN(c3cc(N4CCC5(CC4)OCCC5F)nc(C(F)(F)F)c3C#N)C2)CC1 (stereo not drawn) [Compound 3-058, 4-(3-(4-Acryloylpiperazin-1-yl)azetidin-1-yl)-6-(4-fluoro-1-oxa-8-azaspiro[4.5]decan-8-yl)-2-(trifluoromethyl)nicotinonitrile] | > 5000 nM | 920 nM | > 5000 nM
C=CC(=O)N1CCN(C2CN(c3cc(N4CCC5(C=CCO5)CC4)nc(C(F)(F)F)c3C#N)C2)CC1 [Compound 3-059, 4-(3-(4-Acryloylpiperazin-1-yl)azetidin-1-yl)-6-(1-oxa-8-azaspiro[4.5]dec-3-en-8-yl)-2-(trifluoromethyl)nicotinonitrile] | > 5000 nM | 215 nM | 582 nM
C=CC(=O)N1CCN([C@@H]2CN(c3cc(N4CCC5(CC4)OCC=C5C)nc(C(F)(F)F)n3)[C@@H]2C)CC1 [Compound 3-061, 1-(4-((2R,3R)-2-Methyl-1-(6-(4-methyl-1-oxa-8-azaspiro[4.5]dec-3-en-8-yl)-2-(trifluoromethyl)pyrimidin-4-yl)azetidin-3-yl)piperazin-1-yl)prop-2-en-1-one] | > 5000 nM | 184 nM | 936 nM
C=CC(=O)N1CCN([C@@H]2CN(c3cc(N4CCC5(CC4)OCCC5=C)nc(C(F)(F)F)n3)[C@@H]2C)CC1 [Compound 3-074, 1-(4-((2R,3R)-2-Methyl-1-(6-(4-methylene-1-oxa-8-azaspiro[4.5]decan8-yl)-2-(trifluoromethyl)pyrimidin-4-yl)azetidin-3-yl)piperazin-1-yl) prop-2-en-1-one] | > 5000 nM | 423 nM | 1160 nM
C=CC(=O)N1CCN(C2CN(c3cc(N4CCC5(CCC(=O)N5C)CC4)nc(C(F)(F)F)c3C#N)C2)CC1 [Compound 3-075, 4-(3-(4-Acryloylpiperazin-1-yl)azetidin-1-yl)-6-(1-methyl-2-oxo-1,8-diazaspiro[4.5]decan-8-yl)-2-(trifluoromethyl)nicotinonitrile] | > 5000 nM | 704 nM | 2800 nM
C=CC(=O)N1CCN([C@@H]2CN(c3cc(N4CCC5(CC4)OCCn4ncc(C)c45)nc(C(F)(F)F)n3)[C@@H]2C)CC1 [Compound 3-076, 1-(4-((2R,3R)-2-Methyl-1-(6-(3′-methyl-6′,7′-dihydrospiro[piperidine-4,4′-pyrazolo[5,1-c][1,4]oxazin]-1-yl)-2-(trifluoromethyl)pyrimidin-4-yl)azetidin-3-yl)piperazin-1-yl)prop-2-en-1-one] | > 5000 nM | 72 nM | 214 nM
C=CC(=O)N1CCN([C@@H]2CN(c3cc(N4CC[C@]5(C[C@H]4C)OCCn4ncc(C)c45)nc(C(F)(F)F)n3)[C@@H]2C)CC1 [Compound 3-077, 1-(4-((2R,3R)-1-(6-((2R,4R)-2,3′-dimethyl-6′,7′-dihydro-1H-spiro[piperidine-4,4′-pyrazolo[5,1-c][1,4]oxazin]-1-yl)-2-(trifluoromethyl)-4-pyrimidinyl)-2-methyl-3-azetidinyl)-1-piperazinyl)-2-propen-1-one] | > 5000 nM | 21 nM | 182 nM
C=CC(=O)N1CCN([C@@H]2CN(c3cc(N4CC[C@]5(C[C@H]4C)OCCn4ncc(C)c45)nc(C(F)F)n3)[C@@H]2C)CC1 [Compound 3-078, 1-(4-((2R,3R)-1-(2-(difluoromethyl)-6-((2R,4R)-2,3′-dimethyl-6′,7′-dihydro-1H-spiro[piperidine-4,4′-pyrazolo[5.1-c][1,4]oxazin]-1-yl)-4-pyrimidinyl)-2-methyl-3-azetidinyl)-1-piperazinyl)-2-propen-1-one] | > 5000 nM | 89 nM | 387 nM
C=CC(=O)N1CCN([C@@H]2CN(c3cc(N4CCC5(CC4)OCc4nccc(C)c45)nc(C(F)(F)F)n3)[C@@H]2C)CC1 [Compound 3-079, 1-(4-((2R,3R)-2-methyl-1-(6-(4-methyl-1′H,7H-spiro[furo[3,4-b]pyridine-5,4′-piperidin]-1′-yl)-2-(trifluoromethyl)-4-pyrimidinyl)-3-azetidinyl)-1-piperazinyl)-2-propen-1-one] | > 5000 nM | 81 nM | 180 nM
C=CC(=O)N1CCN([C@@H]2CN(c3cc(N4CCC5(CC4)OCC(CO)n4ncc(C)c45)nc(C(F)(F)F)n3)[C@@H]2C)CC1 (stereo partly drawn) [Compound 3-081, 1-(4-((2R,3R)-1-(6-(7′-(hydroxymethyl)-3′-methyl-6′,7′-dihydrospiro[piperidine-4,4′-pyrazolo[5,1-c][1.4]oxazin]-1-yl)-2-(trifluoromethyl)pyrimidin-4-yl)-2-methylazetidin-3-yl)piperazin-1-yl)prop-2-en-1-one] | > 5000 nM | 63 nM | 131 nM
